Columns and labels:
HEK293 TRPM8 cells = assay: tumor growth in hairless mice; format: in vivo; conditions: male hairless mice, HEK293 TRPM8 cells subcutaneous or xenotransplanted in the prostate; 20 mg/kg daily intraperitoneal in DMSO, three weeks; vs untreated control animals
Procedure: Human TRPM8 cDNA was subcloned in the expression vector pcDNA3.1 and subsequently stably transfected in HEK293 cells. […] To study the effect of menthol or icilin on tumor growth in vivo 2 million HEK293 TRPM8 cells were subcutaneously injected or xenotransplanted in the prostate in male hairless mice. The test groups in each case consisted of 10 animals. The control groups were untreated or treated only with DMSO. The animals were treated by daily intraperitoneal administration of 20 mg/kg body weight icilin or menthol, dissolved in DMSO, over a time interval of three weeks. The growth of the subcutaneously injected cells was measured twice weekly over the entire test duration. Immediately after completion of the trials the “xenotransplants” were resected, weighed and preserved.

[1] = system: HEK293 cells transfected with TRPM8; assay: soft agar assay, colony formation rate; format: cell-based; conditions: TRPM8 transfected HEK293 cells vs wild type and empty vector cells; menthol 10, 100, and 100 μM in medium, substituted every fifth day; after three weeks
Procedure: HEK293 cells were not transfected, transfected with TRPM8 or transfected with an empty vector. The cells were used in a soft agar assay (see reference Shappel et al., Cancer Research 61:497-503 (2001)). The cells highly individually plated out and immobilized in agar are caused to grow three-dimensionally and independently of the substrate in this way. The colony formation rate permits conclusions regarding the tumorigenicity of the cells to be drawn. 1000 cells were plated out in the 6-hole plate in 2 ml of medium containing soft agar and coated with 1 ml of medium (DMEM with 10% FCS, 2mM glutamine) after the agar congealed. Menthol dissolved in ethanol was added to the medium in end concentrations of 10, 100, and 100 μM and substituted every fifth day. The solvent alone was added as a control. After three weeks the number of colonies formed was determined under the microscope.

Q: For `O=C1NC(c2cccc([N+](=O)[O-])c2)=CCN1c1ccccc1O` [icilin], which tumor growth (HEK293 TRPM8 cells) is on record?
A: distinctly less tumor growth

Q: Which “number of colonies formed (colony formation rate)” value [1] does the source give for `CC1CCC(C(C)C)C(O)C1` (stereo not drawn) [menthol] here?
A: distincly less colony formation

Q: And the tumor growth (HEK293 TRPM8 cells)?
A: distinctly less tumor growth
